This note sets out measurements from US8846719B2, “Isoxazolo-pyridine derivatives” (Roche Palo Alto LLC, priority 2007, dated 2014).

This assay deals with human GABA A receptor α5β3γ2 (Homo sapiens (Human), UniProt P18507+P31644). The assay is described as follows: [3H]flumazenil competition binding assay, human GABA A α5β3γ2 receptors expressed in HEK293 cells. The conditions noted are these: human receptor; displacement of [3H]flumazenil (0.5 nM); means of two determinations; read-out: hKi GABAAa5. Summed up: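 Ki values, each the mean of two runs, derive from displacement of [3H]flumazenil from human α5β3γ2 GABA A receptors transiently expressed in HEK293 membranes. Binding ran 1 h at 4° C in Krebs-tris, pH 7.5, before filter harvest and scintillation counting.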
(In general: Loss of bound radioactivity is the signal in a displacement assay; it reports binding, not function.)

As for `CC(C)NC(=O)c1ccc(OCc2conc2-c2ccc(F)cn2)nc1` [Example 366, 6-[3-(5-Fluoro-pyridin-2-yl)-isoxazol-4-ylmethoxy]-isopropyl-nicotinamide], the Ki came to 6.8 nM.
For the compound `COCCNC(=O)c1ccc(OCc2c(-c3ccccn3)noc2C)nc1` [Example 285, (2-Methoxy-ethyl)-6-(5-methyl-3-pyridin-2-yl-isoxazol-4-ylmethoxy)-nicotinamide], the Ki is 1.1 nM.
The result for `Cc1onc(-c2ccccc2)c1COc1ccc(C(=O)NC(C)C(F)(F)F)cn1` (centres unmarked) [Example 234, 6-(5-Methyl-3-phenyl-isoxazol-4-ylmethoxy)-N-(2,2,2-trifluoro-1-methyl-ethyl)-nicotinamide] reads 0.6 nM; that for `COC1CN(C(=O)c2ccc(OCc3c(-c4ccccc4)noc3C)nc2)C1` [Example 241, (3-Methoxy-azetidin-1-yl)-[6-(5-methyl-3-phenyl-isoxazol-4-ylmethoxy)-pyridin-3-yl]-methanone], 16 nM.
The result for `Cc1onc(-c2ccccc2)c1COc1ccc(C(=O)NC2CCCCC2)cn1` [Example 30, N-Cyclohexyl-6-(5-methyl-3-phenyl-isoxazol-4-ylmethoxy)-nicotinamide] reads 13.1 nM.
The result for `Cc1onc(-c2ccccc2)c1COc1ccc(C(=O)N[C@@H]2CCC[C@@H]2O)cn1` (single isomer, unassigned) [Example 210, N-((1R,2S)-2-Hydroxy-cyclopentyl)-6-(5-methyl-3-phenyl-isoxazol-4-ylmethoxy)-nicotinamide or N-((1S,2R)-2-hydroxy-cyclopentyl)-6-(5-methyl-3-phenyl-isoxazol-4-ylmethoxy)-nicotinamide] reads 5 nM; that for `COC(=O)c1ccc(OCc2c(-c3ccc(F)cc3)noc2C)nc1` [Example 103, 6-[3-(4-Fluoro-phenyl)-5-methyl-isoxazol-4-ylmethoxy]-nicotinic acid methyl ester], 16.2 nM.
Turning to `Cc1onc(-c2ccccc2)c1COc1ccc(C(=O)NCCN2CCNC2=O)cn1` [Example 214, 6-(5-Methyl-3-phenyl-isoxazol-4-ylmethoxy)-N-[2-(2-oxo-imidazolidin-1-yl)-ethyl]-nicotinamide], the Ki came to 4.3 nM.
`O=C(NCCO)c1ccc(OCc2c(-c3ccccc3)noc2C(F)(F)F)nc1` [Example 131, N-(2-Hydroxy-ethyl)-6-(3-phenyl-5-trifluoromethyl-isoxazol-4-ylmethoxy)-nicotinamide]: the Ki is 34 nM.
Take `Cc1onc(-c2ccccc2)c1COc1ccc(C(=O)N[C@H]2CCC[C@@H]2O)cn1` (single isomer, unassigned) [Example 212, N-((1S,2S)-2-Hydroxy-cyclopentyl)-6-(5-methyl-3-phenyl-isoxazol-4-ylmethoxy)-nicotinamide or N-((1R,2R)-2-hydroxy-cyclopentyl)-6-(5-methyl-3-phenyl-isoxazol-4-ylmethoxy)-nicotinamide]: the Ki came to 2 nM.
The result for `Cc1onc(-c2cccc(F)c2)c1CNc1ccc(C(=O)NC2CC2)cn1` [Example 170, N-Cyclopropyl-6-{[3-(3-fluoro-phenyl)-5-methyl-isoxazol-4-ylmethyl]-amino}-nicotinamide] reads 19.4 nM.
As to `Cc1onc(-c2ccc(F)cc2)c1COc1ccc(C(=O)NC2CCOCC2)cn1` [Example 109, 6-[3-(4-Fluoro-phenyl)-5-methyl-isoxazol-4-ylmethoxy]-N-(tetrahydro-pyran-4-yl)-nicotinamide], the Ki was 0.8 nM.
Consider `COC(=O)c1ccc(NCc2c(-c3ccc(F)cc3)noc2C)nc1` [Example 172, 6-{[3-(4-Fluoro-phenyl)-5-methyl-isoxazol-4-ylmethyl]-amino}-nicotinic acid methyl ester], for which the Ki was 25.9 nM.
As for `Cc1onc(-c2ccccc2)c1COc1ccc(C(=O)N2CCC(O)C2)cn1` (centres unmarked) [Example 223, (3-Hydroxy-pyrrolidin-1-yl)-[6-(5-methyl-3-phenyl-isoxazol-4-ylmethoxy)-pyridin-3-yl]-methanone], the Ki was determined as 26.1 nM.
